Source: patent US20100179188A1, “NITROXIDE RADICAL AS TREATMENT FOR NEURODEGENERATION” (Office of Technology Transfer, NIH, priority 2007, published 2010)

Tests used:
IRP1 [1] = target: T1, IRP1 (Mus musculus, UniProt P28271); assay: Gel-shift of erythroblasts treated with β-mercaptoethanol; type: biochemical; design: Lysates made from various brain regions of IRP2−/− mice; from tissue; host or cells: mouse brain (cerebellum, forebrain, brain-stem) lysates; settings: erythroblasts from wild type mice, high concentrations
T1 sequence (P28271 1-889): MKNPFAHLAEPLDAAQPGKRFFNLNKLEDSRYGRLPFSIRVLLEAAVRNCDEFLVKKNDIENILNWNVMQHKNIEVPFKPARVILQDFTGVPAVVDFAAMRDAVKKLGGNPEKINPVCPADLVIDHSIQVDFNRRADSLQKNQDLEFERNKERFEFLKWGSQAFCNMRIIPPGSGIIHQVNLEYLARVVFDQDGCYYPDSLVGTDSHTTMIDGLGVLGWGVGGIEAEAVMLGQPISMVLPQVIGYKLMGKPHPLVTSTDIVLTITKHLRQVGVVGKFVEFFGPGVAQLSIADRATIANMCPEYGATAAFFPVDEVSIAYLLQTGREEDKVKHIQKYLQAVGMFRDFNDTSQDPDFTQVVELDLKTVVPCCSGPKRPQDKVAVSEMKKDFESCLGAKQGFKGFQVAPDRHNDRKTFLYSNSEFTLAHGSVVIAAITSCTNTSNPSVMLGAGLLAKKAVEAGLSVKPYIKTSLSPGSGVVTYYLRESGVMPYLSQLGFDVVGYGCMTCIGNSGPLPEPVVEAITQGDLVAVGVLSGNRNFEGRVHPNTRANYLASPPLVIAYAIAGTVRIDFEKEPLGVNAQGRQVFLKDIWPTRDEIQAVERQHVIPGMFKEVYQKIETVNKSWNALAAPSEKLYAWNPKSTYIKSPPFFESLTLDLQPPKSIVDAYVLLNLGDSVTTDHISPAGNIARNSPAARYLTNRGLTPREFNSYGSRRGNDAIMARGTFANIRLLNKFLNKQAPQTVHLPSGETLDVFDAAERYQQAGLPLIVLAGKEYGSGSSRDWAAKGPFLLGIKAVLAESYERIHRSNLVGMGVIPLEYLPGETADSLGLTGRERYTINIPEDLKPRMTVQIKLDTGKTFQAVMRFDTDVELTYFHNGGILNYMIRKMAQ
Description: (§1) Cells: Embryonic fibroblasts of 13-day old embryos were isolated from wild type, IRP1−/− mice and IRP2−/− mice as described in LaVaute et al. supra. Myc-tagged HEK 293 Tet-on cell line, in which IRP2 expression was inducible, was prepared and cultured as described Bourdon et al., Blood Cells Mol Dis, 31, 247-255 (2003). Erythroblasts were harvested from bone marrow and purified as described in Cooperman et al., Blood, 106, 1084-1091 (2005).
RNA mobility shift assays: Gel retardation assays were performed as described in Meyron-Holtz et al., EMBO J, 23, 386-395 (2004). Tissue lysates were prepared in an anaerobic chamber as described above in oxygen-depleted lysis buffer containing 10 mM HEPES (pH 7.2), 3 mM MgC12, 40 mM KCl, 5% glycerol, 0.2% Nonidet P-40, 5 mM DTT, 1 mM AEBSF, 10 μg/ml. Leupeptin and complete TM EDTA free protease inhibitor cocktail (Roche Applied Science, Indiana). Lysate (x μl) containing 10 μg of total protein was added to (12.5−x) μl of bandshift buffer containing 25 mM Tris-HCl (pH 7.5) and 40 mM KCl. The samples were incubated for 5 min at room temperature (RT) with 12.5 μl of a reaction cocktail containing 20% glycerol, 0.2 U/μl Super RNAsine (Ambion, Tex.), 0.6 μg/μl yeast t-RNA, 5 mM DTT and 20 nM 32P-labelled IRE from human ferritin H-chain gene in 25 mM Tris-HCl (pH 7.5) and 40 mM KCl. […]

IRP1 [2] = target: T1, IRP1; assay: Gel-shift of brain lysates treated with β-mercaptoethanol; type: biochemical, mice; design: Lysates made from various brain regions of IRP2−/− mice; from tissue; host or cells: mouse brain (cerebellum, forebrain, brain-stem) lysates; settings: FIG. 7a
Description: Tissue and lysate preparation: Animals were euthanized and tissues were frozen in liquid nitrogen immediately after harvesting, and stored at −80° C. under argon. Experiments were performed on tissues that were pulverized in liquid N2-cooled mortars in an anaerobic chamber, and then lysed in lysis buffer that was deaerated by cyclic freezethaw and air-removal with argon. Nuclei and debris were removed by centrifugation. Preparations of lysates for assays of IRP1 activity, western blotting, carbonyl assay and protein analysis were performed anaerobically.
RNA mobility shift assays: Gel retardation assays were performed as described in Meyron-Holtz et al., EMBO J, 23, 386-395 (2004). Tissue lysates were prepared in an anaerobic chamber as described above in oxygen-depleted lysis buffer containing 10 mM HEPES (pH 7.2), 3 mM MgC12, 40 mM KCl, 5% glycerol, 0.2% Nonidet P-40, 5 mM DTT, 1 mM AEBSF, 10 μg/ml. Leupeptin and complete TM EDTA free protease inhibitor cocktail (Roche Applied Science, Indiana). Lysate (x μl) containing 10 μg of total protein was added to (12.5−x) μl of bandshift buffer containing 25 mM Tris-HCl (pH 7.5) and 40 mM KCl. […]

IRP1 [3] = target: T1, IRP1; assay: Gel-shift of IRP1 in wild type and IRP2−/− mouse embryonic fibroblasts after Tempo1 or DFO and washout; type: cell-based; design: Embryonic fibroblasts of 13-day old embryos were isolated from wild type, IRP1−/− mice and IRP2−/− mice; endogenous in cells; host or cells: mouse embryonic fibroblasts (wild type and IRP2−/−); settings: wild type and IRP2−/− mouse embryonic fibroblasts treated 16 hours
Description: as §1
RNA mobility shift assays: Gel retardation assays were performed as described in Meyron-Holtz et al., EMBO J, 23, 386-395 (2004). Tissue lysates were prepared in an anaerobic chamber as described above in oxygen-depleted lysis buffer containing 10 mM HEPES (pH 7.2), 3 mM MgC12, 40 mM KCl, 5% glycerol, 0.2% Nonidet P-40, 5 mM DTT, 1 mM AEBSF, 10 μg/ml. Leupeptin and complete TM EDTA free protease inhibitor cocktail (Roche Applied Science, Indiana). Lysate (x μl) containing 10 μg of total protein was added to (12.5−x) μl of bandshift buffer containing 25 mM Tris-HCl (pH 7.5) and 40 mM KCl. The samples were incubated for 5 min at room temperature (RT) with 12.5 μl of a reaction cocktail containing 20% glycerol, 0.2 U/μl Super RNAsine (Ambion, Tex.), 0.6 μg/μl yeast t-RNA, 5 mM DTT and 20 nM 32P-labelled IRE from human ferritin H-chain gene in 25 mM Tris-HCl (pH 7.5) and 40 mM KCl. A measure of 20 μl of this reaction mixture was loaded into a 10% acrylamide/TBE gel, which was run at 200 V for 2.15 h, and then the gel was fixed, dried and exposed for autoradiography.
(§2) To determine whether the effect of Tempo1 on IRP1 activity was kinetically consistent with oxidative disassembly of the iron sulfur cluster, the effect of Tempo1 on aconitase activity was compared to that of the iron chelator, deferiprone (DFO), which activates IRE-binding activity of IRP1 by limiting de novo synthesis and repair of the iron sulfur cluster in IRP1. […] Recovery of aconitase activity was assessed in wild type and IRP2−/− cells.

cytosolic aconitase = target: T2, cytosolic aconitase (Mus musculus, UniProt P28271); assay: In-gel aconitase assay in mouse embryonic fibroblast lysates, cytosolic aconitase; type: cell-based; settings: assessed 8 hours after removal; mouse embryonic fibroblasts treated 16 hours
T2 construct: Embryonic fibroblasts of 13-day old embryos were isolated from wild type, IRP1−/− mice and IRP2−/− mice; endogenous in cells; host or cells: mouse embryonic fibroblasts (wild type and IRP2−/−)
T2 sequence (P28271 1-889): T1 sequence (P28271 1-889)
Description: as §1
Aconitase assay: Aconitase activity gels for human lysates were performed as described in Tong et al., infra, and aconitase activity gels for mouse lysate were performed with the following modifications. The gel was composed of a separating gel containing 6% acrylamide, 132 mM Tris base, 66 mM borate, 3.6 mM citrate, and a stacking gel containing 4% acrylamide, 66 mM Tris base, 33 mM borate, 3.6 mM citrate. The running buffer contains 25 mM Tris pH 8.3, 96 mM glycine, and 3.6 mM citrate. Electrophoresis were carried out at 170 V at 4° C. Spectral aconitase activity was measured by following the method of Fillebeen et al., infra, using cis-aconitate as the substrate.
To confirm that nitroxide radicals activate IRP1 binding by disassembly of the iron-sulfur cluster, we performed in-gel aconitase assays to determine whether Tempo1 decreased the activity of cytosolic aconitase. […] The band that represented the cytosolic aconitase was readily identified by its absence in lysates from IRP1−/− cells. […]
as §2

Compound	additional IRE binding activity of IRP1 (IRP1 [1])	IRE binding activity recruited (IRP1 [2])	IRE-binding activity of IRP1 (IRP1 [3])	recovery of cytosolic aconitase activity (cytosolic aconitase)
OCCS [β-mercaptoethanol]	did not activate additional	significant increases	–	–
Cc1c(O)c(=O)ccn1C [DFO, deferiprone, reference compound]	–	–	activated	little recovery
